Results published in paper PMC8709788, “Mandipropamid as a chemical inducer of proximity for in vivo applications” (Nature Chemical Biology, 2021).

What was measured:
[1] = molecular target: T1, FKBP12 / FRB (rapamycin CIP system) (Homo sapiens, UniProt P42345+P62942); experiment: RSICS fluorescence cross-correlation in living cells; assay type: cell-based; details: COS-7 cells, 15 min, ternary complex FKBP12-rapamycin-FRB
T1 construct: gene FKBP1A

[2] = molecular target: T2, PYL / ABI (ABA CIP system) (Arabidopsis thaliana, UniProt Q8VZS8); experiment: Gal4BD/VP16 induced-proximity luciferase expression assay; assay type: cell-based; details: COS-7 cells, […] h incubation; induced dimerization of PYL with ABI; text says ABA, legend of Fig. 2e names ABA and also ABA-AM
T2 construct: gene PYL1; TOM20-PYL and eGFP-ABI fusions for imaging; with Protein phosphatase 2C 56
T2 sequence (Q8VZS8 33-209 limits assumed): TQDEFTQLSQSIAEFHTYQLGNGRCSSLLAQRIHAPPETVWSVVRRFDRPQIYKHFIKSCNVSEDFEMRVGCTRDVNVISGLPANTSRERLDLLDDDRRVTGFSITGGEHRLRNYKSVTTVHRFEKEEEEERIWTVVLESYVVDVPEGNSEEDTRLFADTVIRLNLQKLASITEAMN
T2 sequence (P49597 126-423 partner limits assumed): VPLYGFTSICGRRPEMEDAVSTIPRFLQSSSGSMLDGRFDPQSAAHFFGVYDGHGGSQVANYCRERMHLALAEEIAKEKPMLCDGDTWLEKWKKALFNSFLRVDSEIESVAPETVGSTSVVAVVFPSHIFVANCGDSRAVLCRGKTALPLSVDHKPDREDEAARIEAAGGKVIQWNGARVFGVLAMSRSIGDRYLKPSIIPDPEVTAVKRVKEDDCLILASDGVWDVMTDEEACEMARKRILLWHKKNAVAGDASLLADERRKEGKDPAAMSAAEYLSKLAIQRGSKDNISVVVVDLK

T1 sequence (P62942 2-108): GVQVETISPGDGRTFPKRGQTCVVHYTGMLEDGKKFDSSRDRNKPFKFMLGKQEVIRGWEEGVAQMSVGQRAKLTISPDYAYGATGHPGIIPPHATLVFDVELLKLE
T1 sequence (P42345 2021-2113 limits assumed): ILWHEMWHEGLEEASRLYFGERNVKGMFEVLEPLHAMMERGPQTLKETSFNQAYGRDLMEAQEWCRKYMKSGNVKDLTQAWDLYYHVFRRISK

## CO[C@H]1C[C@@H]2CC[C@@H](C)[C@@](O)(O2)C(=O)C(=O)N2CCCC[C@H]2C(=O)O[C@H]([C@H](C)C[C@@H]2CC[C@@H](O)[C@H](OC)C2)CC(=O)[C@H](C)/C=C(\C)[C@@H](O)[C@@H](OC)C(=O)[C@H](C)C[C@H](C)/C=C/C=C/C=C/1C [compound 5, rapamycin]
[1]
  binding efficiency (interacting fraction) at 500 nM: 71 ± 3%

## (+)-abscisic acid [compound 3]
[2]
  EC50: 30.8 ± 15.5 µM
